Where two headings read alike, the source gives them in different places.
What was measured:
[1] = ITC, metal binding to mb: Ag(I); details: Ag(I) column
Method: (§1) FIG. 14. Binding isotherm of 3.2 mM HgCl2 (A), HAuCl4 (B), AgNO3 (C) NiCl2 (D), ZnCl2 (E) or FeCl3 (F) into 400 μM mb (cell) aqueous solution at 25° C. Binding isotherm of 1.6 mM HAuCl4 (B). The curve fittings for two-site binding algorithm were used.
(§2) FIG. 15. Binding isotherm of 3.2 mM CdCl2 (A), CoCl2(B), FeCl3 (C), or MnCl2(D) into […] mb aqueous solution at 25° C. Curve fittings for one-site binding algorithm (B, D) or two-site binding algorithm (A, C) were used.
(§3) ITC was performed with following modifications from the previously described procedure (Choi et al., 2006). First, concentrations of the titrant and cell solutions were raised to 3.2 mM and 0.4 mM, respectively. Second, the interval between titrant injections were decreased to 600 s and the stirring rate decreased to 380 rpm.

[2] = ITC, metal binding to mb: Au(III); details: column headed Au(II)
Method: as §1, §2, §3

[3] = ITC, metal binding to mb: Hg(II); details: Hg(II) column
Method: as §1, §2, §3

[4] = ITC, metal binding to mb: Pb(II); details: Pb(II) column, one-site binding model
Method: as §1, §2, §3

[5] = ITC, metal binding to mb: Cd(II); details: Cd(II) column
Method: as §1, §2, §3

[6] = ITC, metal binding to mb: Co(II); details: Co(II) column, one-site fit, 25° C.
Method: as §1, §2, §3

[7] = ITC, metal binding to mb: Fe(III); details: Fe(III) column
Method: as §1, §2, §3

[8] = ITC, metal binding to mb: Mn(II); details: Mn(II) column, one-site fit, 25° C.
Method: as §1, §2, §3

[9] = ITC, metal binding to mb: Ni(II); details: Ni(II) column
Method: as §1, §2, §3

[10] = ITC, metal binding to mb: Zn(II); details: Zn(II) column
Method: as §1, §2, §3

[11] = Initial screening by UV-visible absorption spectroscopy: Ag(I); assay type: binding; details: in the absence of Cu(II) or Cu(I)
Method: (§4) Metal titration experiments were determined by addition of 100 μM, 1 mM, or 10 mM solutions of AgNO3, HAuCl4, CdCl2, CoCl2, CrO3, CuSO4, FeCl3, HgCl2, MgCl2, MnCl2, NiCl2, Pb(NO3)2, UO2(NO3)2, or ZnSO4 to 50 μM methanobactin dissolved in H2O, pH 6.8 as previously described for Cu(II) or Cu(I) titrations (Choi et al., 2006) unless otherwise stated. Glassware was soaked in 0.1 N HNO3 for 12 hours then rinsed with milliQ H2O. For the metal replacement experiments, 50 μM aqueous mb solutions were preloaded with equimolar of AgNO3, HAuCl4, CaCl2, CdCl2, CoCl2, CrO3, CuSO4, FeCl3, HgCl2, MgCl2, MnCl2, NiCl2, Pb(NO3)2, UO2(NO3)2, or ZnSO4, incubated for 10 minutes followed by the addition of equimolar CuSO4 then monitored via UV-visible absorption spectroscopy every 30 seconds for 0.5-120 minutes. Between scans the samples were stored in the dark to avoid photodegradation (Choi et al., 2005).
(§5) UV-visible absorption, florescence spectra, circular dichroism (CD), and metal determinations via inductively coupled plasma atomic emission-mass spectroscopy (ICP-MS) were determined as previously described (Choi et al., 2003; Choi et al., 2006). In contrast to a previous report (Choi et al., 2006), the base line was used as a reference point of 0 instead of isosbestic point e for the comparison of Δεs.

[12] = Initial screening by UV-visible absorption spectroscopy: Au(III); assay type: binding; details: in the absence of Cu(II) or Cu(I)
Method: as §4, §5

[13] = Initial screening by UV-visible absorption spectroscopy: Cd(II); assay type: binding; details: in the absence of Cu(II) or Cu(I)
Method: as §4, §5

[14] = Initial screening by UV-visible absorption spectroscopy: Co(II); assay type: binding; details: in the absence of Cu(II) or Cu(I)
Method: as §4, §5

[15] = Initial screening by UV-visible absorption spectroscopy: Fe(III); assay type: binding; details: in the absence of Cu(II) or Cu(I)
Method: as §4, §5

[16] = Initial screening by UV-visible absorption spectroscopy: Hg(II); assay type: binding; details: in the absence of Cu(II) or Cu(I)
Method: as §4, §5

[17] = Initial screening by UV-visible absorption spectroscopy: Mn(II); assay type: binding; details: in the absence of Cu(II) or Cu(I)
Method: as §4, §5

[18] = Initial screening by UV-visible absorption spectroscopy: Ni(II); assay type: binding; details: in the absence of Cu(II) or Cu(I)
Method: as §4, §5

[19] = Initial screening by UV-visible absorption spectroscopy: Pb(II); assay type: binding; details: in the absence of Cu(II) or Cu(I)
Method: as §4, §5

[20] = Initial screening by UV-visible absorption spectroscopy: U(VI); assay type: binding; details: in the absence of Cu(II) or Cu(I)
Method: as §4, §5

[21] = Initial screening by UV-visible absorption spectroscopy: Zn(II); assay type: binding; details: in the absence of Cu(II) or Cu(I)
Method: as §4, §5

[22] = Initial screening by UV-visible absorption spectroscopy: Ba(II); assay type: binding; details: in the absence of Cu(II) or Cu(I)
[23] = Initial screening by UV-visible absorption spectroscopy: La(III); assay type: binding; details: in the absence of Cu(II) or Cu(I)
[24] = Initial screening by UV-visible absorption spectroscopy: Mg(II); assay type: binding; details: in the absence of Cu(II) or Cu(I)
Method: as §4, §5

[25] = Initial screening by UV-visible absorption spectroscopy: Sr(II); assay type: binding; details: in the absence of Cu(II) or Cu(I)
[26] = XPS, oxidation state of metal bound to mb: Au(III)
Source text: FIG. 11. (A) Gold X-ray photoelectric spectra of mb at gold to mb molar ratios between 0.05 and 10 Au per mb. (B) Corrected signal from Au(0) (◯) and Au(III) (●) at different gold:mb molar ratios.
(§6) XPS was preformed on a model Phoibos-150 hemispherical analyzer (SPECS Scientific Instruments, Sarasota, Fla.) or on a model 5600ci spectrophotometer (Perkin-Elmer Inc., Eden Prairie, Minn.) as previously described (Choi et al., 2006).

[27] = XPS, oxidation state of metal bound to mb: Ni(II)
Source text: as §6

[28] = Cu(II) column, cited from earlier work
[29] = first site, two-site fit, 25° C.

## methanobactin [mb]
[1]; [29]
  K1: 2.6 ± 0.4 × 10^7 M^−1
[1]; second site
  K1: 4.7 ± 0.45 × 10^4 M^−1
[2]; [29]
  K1: 1.0 ± 0.5 × 10^5 M^−1
[2]; second site
  K1: 1.8 ± 0.2 × 10^5 M^−1
[3]; [29]
  K1: 9.9 ± 2.9 × 10^6 M^−1
[3]; second site
  K1: 89.9 ± 0.01 × 10^4 M^−1
[4]
  K1: 6.84 ± 0.4 × 10^5 M^−1
[5]; [29]
  K1: 1.3 ± 0.8 × 10^6 M^−1
[5]; second site
  K1: 1.1 ± 0.6 × 10^7 M^−1
[6]
  K1: 1.1 ± 0.2 × 10^6 M^−1
[7]; [29]
  K1: 9.7 ± 0.6 × 10^5 M^−1
[7]; second site
  K1: 1.7 ± 0.7 x10^5 M^−1
[8]
  K1: 7.7 ± 1.8 × 10^5 M^−1
[9]; [29]
  K1: 4.9 ± 0.9 × 10^5 M^−1
[9]; second site
  K1: 1.17 ± 0.5 × 10^7 M^−1
[10]; [29]
  K1: 4.5 ± 1.4 × 10^6 M^−1
[10]; second site
  K1: 1.8 ± 0.1 × 10^4 M^−1
[11]
  binding of Ag(I) by mb: will bind
[12]
  binding of Au(III) by mb: will bind
[13]
  binding of Cd(II) by mb: will bind
[14]
  binding of Co(II) by mb: will bind
[15]
  binding of Fe(III) by mb: will bind
[16]
  binding of Hg(II) by mb: will bind
[17]
  binding of Mn(II) by mb: will bind
[18]
  binding of Ni(II) by mb: will bind
[19]
  binding of Pb(II) by mb: will bind
[20]
  binding of U(VI) by mb: will bind
[21]
  binding of Zn(II) by mb: will bind
[22]
  binding of Ba(II) by mb: not
[23]
  binding of La(III) by mb: not
[24]
  binding of Mg(II) by mb: not
[25]
  binding of Sr(II) by mb: not
[26]
  Au to mb ratio above which Au(III) is detected in reaction mixtures: > 2 Au(III) per mb
[26]; no external reductant
  oxidation state of Au(III) after binding by mb: reduced to Au(0)
[27]
  oxidation state of Ni(II) following binding to mb: did not change
[28]; first site
  K1: 3.3e+34 ± 3e+11 M⁻¹
[28]; second site
  K1: 2.6 ± 0.5 × 10^8 M^−1
